Measured values published in ChEMBL document CHEMBL1268830, “Efficient synthesis and biological evaluation of some 2,4-diamino-furo[2,3-d]pyrimidine derivatives” (Bioorg Med Chem Lett, 2010).

What was measured:
A549 = assay: Cytotoxicity against human A549 cells after 48 hrs by MTT assay; type: functional, cell-based; conditions: A549, 48 h
[1] = Cytotoxicity against human sSPC-A1 cells after 48 hrs by MTT assay; type: functional, cell-based; conditions: sSPC-A1, 48 h

SMILES | IC50 (A549) [µM] | IC50 [1] [µM]
CCOC(=O)c1c(C)oc2nc(Nc3ccccc3)nc(N3CCN(C)CC3)c12 | 0.8 | 26.1
CCOC(=O)c1c(C)oc2nc(Nc3ccccc3)nc(N3CCOCC3)c12 | 15.2 | 69
CCCCNc1nc(Nc2ccccc2)nc2oc(C)c(C(=O)OCC)c12 | 2.7 | 50.2
CCOC(=O)c1c(C)oc2nc(Nc3cccc(C)c3)nc(N3CCOCC3)c12 | 14 | 70.8
CCOC(=O)c1c(C)oc2nc(Nc3cccc(C)c3)nc(N(CC)CC)c12 | 8.8 | 
CCOC(=O)c1c(C)oc2nc(Nc3cccc(C)c3)nc(NC(C)C)c12 | 8.6 | 46.3
CCOC(=O)c1c(C)oc2nc(Nc3cccc(C)c3)nc(N3CCN(C)CC3)c12 | 5.5 | 18.2
CCOC(=O)c1c(C)oc2nc(Nc3ccccc3)nc(NCCO)c12 | 13 | 24.2
CCCCNc1nc(Nc2cccc(C)c2)nc2oc(C)c(C(=O)OCC)c12 | 9 | 
CCOC(=O)c1c(C)oc2nc(Nc3ccccc3)nc(NC(C)C)c12 | 21.5 | 
